Experimental data as given in ChEMBL document CHEMBL1201862, “PubChem BioAssay data set” (2004).
The source made the active and inactive calls.

Key:
[1] = Trypanosoma cruzi growth suppression in host cells – NIH3T3 host cells, beta-gal luminescence, confirmation (AID 2044); assay type: functional, cell-based;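 note: intracellular parasites grown in NIH/3T3 mouse fibroblasts as host cells; luminescent beta-galactosidase reporter signal from transgenic T. cruzi replicating inside host cells; inhibitors lower the luminescence signal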
[2] = loss of viability in HepG2 cells – cell-based, CellTiter-Glo, cherry-picked, cytotoxicity control for Shn3 inhibitor project, dose response (AID 624134); assay type: functional
[3] = reduction of Shn3 3'UTR-driven luciferase in osteoblasts – cell-based, Clone20 osteoblasts, firefly luciferase, cherry-picked, dose response (AID 624132); assay type: functional;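 note: firefly luciferase luminescence from reporter carrying the Shn3 3'UTR in osteoblasts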
[4] = molecular target: DNA damage-inducible transcript 3 protein (Mus musculus, UniProt P35639); assay type: functional, Cricetulus griseus
[5] = molecular target: Neurotensin receptor type 1 (Homo sapiens, UniProt P30989); assay type: functional;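 note: Image-based confirmatory dose-response assay measuring agonist activity at NTR1; NTR1-expressing U2OS osteosarcoma cells imaged for beta-arrestin GFP spot formation; agonist potency where compounds increase beta-arrestin recruitment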
[6] = NIH3T3 cell viability loss – ATP luminescence, mouse fibroblasts, counter-screen, dose response (AID 2010); assay type: functional, cell-based;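 note: cells exposed to compound for about 90 hours before reading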
Protein RecA = molecular target: T1, Protein RecA (Mycobacterium tuberculosis, UniProt P9WHJ3); test: Fluorescence Cell-Free Homogeneous Dose Retest to Identify Inhibitors of RecA-Intein Splicing Activity. [Related pubchem assays (depositor defined):AID2097, AID2223, AID489010, AID492950]; assay type: functional
T1 sequence (P9WHJ3 whole entry): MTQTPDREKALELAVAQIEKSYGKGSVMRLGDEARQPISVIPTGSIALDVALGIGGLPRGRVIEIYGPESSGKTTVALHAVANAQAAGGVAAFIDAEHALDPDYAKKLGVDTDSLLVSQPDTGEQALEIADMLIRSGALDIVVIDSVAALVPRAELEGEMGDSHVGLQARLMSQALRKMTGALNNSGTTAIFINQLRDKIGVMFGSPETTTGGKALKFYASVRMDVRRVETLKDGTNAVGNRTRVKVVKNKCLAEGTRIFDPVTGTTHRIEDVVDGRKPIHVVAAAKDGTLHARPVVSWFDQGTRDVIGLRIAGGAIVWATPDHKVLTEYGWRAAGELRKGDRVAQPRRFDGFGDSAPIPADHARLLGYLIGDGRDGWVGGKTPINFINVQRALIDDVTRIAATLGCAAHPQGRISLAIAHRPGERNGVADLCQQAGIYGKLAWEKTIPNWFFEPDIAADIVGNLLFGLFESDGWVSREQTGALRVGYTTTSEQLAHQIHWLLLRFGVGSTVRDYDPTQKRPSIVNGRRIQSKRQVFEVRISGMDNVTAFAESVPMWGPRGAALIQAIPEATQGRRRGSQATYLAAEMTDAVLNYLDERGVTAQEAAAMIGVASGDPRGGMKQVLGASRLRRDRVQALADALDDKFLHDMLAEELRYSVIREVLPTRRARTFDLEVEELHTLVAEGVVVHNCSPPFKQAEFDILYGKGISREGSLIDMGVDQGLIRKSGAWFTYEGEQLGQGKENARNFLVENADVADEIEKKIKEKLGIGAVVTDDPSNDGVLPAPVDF

[7] = Intein inhibitors as potential Tuberculosis drugs, a cytotoxicity screen. [Related pubchem assays (depositor defined):AID2221, AID2223, AID434968, AID435010, AID449749, AID449750, AID489010]; assay type: functional
[8] = molecular target: T2, Replicative DNA helicase DnaB (Mycobacterium tuberculosis, UniProt P9WMR3); test: DnaB intein splicing inhibitors, dose response, biochemical, cell-free fluorescence (AID 449749); assay type: functional
T2 sequence (P9WMR3 whole entry): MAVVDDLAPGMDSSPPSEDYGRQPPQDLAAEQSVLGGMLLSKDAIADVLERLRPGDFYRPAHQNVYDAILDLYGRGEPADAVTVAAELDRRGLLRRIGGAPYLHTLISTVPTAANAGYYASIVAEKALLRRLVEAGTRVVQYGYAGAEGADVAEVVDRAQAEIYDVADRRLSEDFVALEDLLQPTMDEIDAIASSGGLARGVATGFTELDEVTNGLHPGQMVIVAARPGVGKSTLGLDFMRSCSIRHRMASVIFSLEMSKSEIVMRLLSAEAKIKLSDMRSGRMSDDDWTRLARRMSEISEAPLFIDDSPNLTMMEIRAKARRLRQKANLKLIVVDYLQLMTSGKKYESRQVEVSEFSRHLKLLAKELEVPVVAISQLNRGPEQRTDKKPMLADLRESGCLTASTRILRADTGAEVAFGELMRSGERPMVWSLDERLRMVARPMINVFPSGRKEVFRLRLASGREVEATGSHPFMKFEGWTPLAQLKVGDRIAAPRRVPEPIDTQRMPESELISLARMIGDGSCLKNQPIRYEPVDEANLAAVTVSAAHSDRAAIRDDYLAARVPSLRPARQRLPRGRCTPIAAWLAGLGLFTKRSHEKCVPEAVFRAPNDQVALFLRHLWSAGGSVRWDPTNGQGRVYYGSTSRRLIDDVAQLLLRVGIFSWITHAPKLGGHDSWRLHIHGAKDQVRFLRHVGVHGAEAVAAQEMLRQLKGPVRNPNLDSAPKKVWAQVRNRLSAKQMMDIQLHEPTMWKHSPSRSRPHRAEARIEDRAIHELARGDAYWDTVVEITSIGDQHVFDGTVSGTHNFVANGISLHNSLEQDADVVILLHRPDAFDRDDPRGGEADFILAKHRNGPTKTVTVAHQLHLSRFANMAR

[9] = non-specific 3'UTR reporter inhibition in Clone20-Shn3RL – cell-based, Renilla luciferase, cherry-picked, counter-screen for Shn3 inhibitor project, dose response (AID 624133); assay type: functional
[10] = molecular target: T3, Polyadenylate-binding protein 1 (Homo sapiens, UniProt P11940); test: blockers of PABP interaction with poly(A) – biochemical, fluorescence polarization, […] (AID 2014)
[11] = molecular target: T4, Eukaryotic translation initiation factor 4H (Homo sapiens, UniProt Q15056); test: eIF4H binding inhibition – biochemical, uHTS, fluorescence polarization, translation initiation inhibitor project, primary screen (AID 2012)
[12] = molecular target: T4, Eukaryotic translation initiation factor 4H; test: inhibitors of translation initiation factor eIF4H – SAR follow-up (AID 435011); assay type: functional
[13] = molecular target: T3, Polyadenylate-binding protein 1; test: PABP inhibition in translation initiation, SAR follow-up (AID 435018); assay type: functional
Estrogen receptor = molecular target: T5, Estrogen receptor (Homo sapiens, UniProt P03372);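 note: potency for inhibiting coactivator peptide recruitment to the receptor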
T5 sequence (P03372 whole entry): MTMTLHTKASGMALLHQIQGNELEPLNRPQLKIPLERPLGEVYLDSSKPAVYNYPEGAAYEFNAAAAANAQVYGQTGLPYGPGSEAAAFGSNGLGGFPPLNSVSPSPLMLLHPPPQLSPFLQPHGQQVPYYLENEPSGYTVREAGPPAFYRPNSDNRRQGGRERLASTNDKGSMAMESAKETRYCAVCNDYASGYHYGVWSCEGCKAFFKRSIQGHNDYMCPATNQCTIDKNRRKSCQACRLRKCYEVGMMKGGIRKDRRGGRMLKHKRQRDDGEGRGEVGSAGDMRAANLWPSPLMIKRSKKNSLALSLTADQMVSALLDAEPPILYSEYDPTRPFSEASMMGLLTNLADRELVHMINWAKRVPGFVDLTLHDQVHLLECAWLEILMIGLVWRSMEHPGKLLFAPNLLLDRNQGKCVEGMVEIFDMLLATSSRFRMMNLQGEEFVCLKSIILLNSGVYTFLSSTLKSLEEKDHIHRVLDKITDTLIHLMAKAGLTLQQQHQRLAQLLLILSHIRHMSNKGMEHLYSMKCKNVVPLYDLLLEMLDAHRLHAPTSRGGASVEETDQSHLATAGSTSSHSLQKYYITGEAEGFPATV

[14] = molecular target: T6, Runt-related transcription factor 1/Core-binding factor subunit beta (Homo sapiens, UniProt Q01196+Q13951); test: Runt domain/CBFb-SMMHC interaction disruptors – biochemical, TR-FRET (AID 1438); assay type: protein assay
[15] = molecular target: T6, Runt-related transcription factor 1/Core-binding factor subunit beta; test: disruptors of Runt domain/CBFb-SMMHC interaction – biochemical, FRET, Cerulean-Runt, Venus-CBFb-SMMHC, uHTS, […] (AID 1434); assay type: protein assay
[16] = viability loss of HPDE-C7K cells – cell-based, fluorescence, HTS, primary screen (AID 431); assay type: functional; details: Homo sapiens
[17] = HPDE-C7 pancreatic duct cell viability loss – fluorescence, HTS (AID 430); assay type: functional, cell-based; details: Homo sapiens
[18] = molecular target: T7, Voltage-gated N-type calcium channel alpha-1B subunit/Amyloid beta A4 precursor protein-binding family A member 1 (Homo sapiens, UniProt Q00975+Q02410); assay type: protein assay
Ion channel NompC = Ion channel NompC (Danio rerio, UniProt Q7T1G6); test: Dose response cell-based high-throughput screening assay for agonists of the transient receptor potential channel N1 (TRPN1). [Related pubchem assays (depositor defined):AID1424, AID1448]; assay type: functional
Mucolipin-3 = Mucolipin-3 (Homo sapiens, UniProt Q8TDD5); test: Fluorescence counterscreen assay for […] agonists: dose response cell-based high-throughput screening assay to identify agonists of the transient receptor potential channel ML3 (TRPML3). [Related pubchem assays: 1424, 1448 ]; assay type: functional
[19] = molecular target: T7, Voltage-gated N-type calcium channel alpha-1B subunit/Amyloid beta A4 precursor protein-binding family A member 1; assay type: protein assay; remark: listed apart in the source
[20] = molecular target: T8, Alkaline phosphatase, tissue-nonspecific isozyme (Homo sapiens, UniProt P05186); test: potency against alkaline phosphatase TNAP – biochemical, luminescent, dose response, SAR follow-up (AID 1056)
T8 sequence (P05186 whole entry): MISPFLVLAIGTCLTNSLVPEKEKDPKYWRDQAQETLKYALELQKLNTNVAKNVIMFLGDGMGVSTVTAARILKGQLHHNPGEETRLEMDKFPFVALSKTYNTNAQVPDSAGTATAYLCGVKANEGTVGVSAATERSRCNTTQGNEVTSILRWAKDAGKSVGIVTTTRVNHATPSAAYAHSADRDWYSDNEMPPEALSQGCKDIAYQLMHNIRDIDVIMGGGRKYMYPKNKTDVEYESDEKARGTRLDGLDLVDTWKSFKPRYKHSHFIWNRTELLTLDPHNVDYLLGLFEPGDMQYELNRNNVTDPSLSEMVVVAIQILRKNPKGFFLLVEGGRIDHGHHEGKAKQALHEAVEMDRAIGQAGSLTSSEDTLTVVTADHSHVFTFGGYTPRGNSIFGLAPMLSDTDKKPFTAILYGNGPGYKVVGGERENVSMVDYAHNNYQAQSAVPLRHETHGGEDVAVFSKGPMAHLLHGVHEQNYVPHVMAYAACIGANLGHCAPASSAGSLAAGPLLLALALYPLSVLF

[21] = molecular target: Alkaline phosphatase, placental type (Homo sapiens, UniProt P05187); test: human placental alkaline phosphatase inhibition – biochemical, luminescence, confirmation (AID 1512); assay type: functional
[22] = molecular target: Glyceraldehyde-3-phosphate dehydrogenase (Homo sapiens, UniProt P04406)
Integrin alpha-4 = Integrin alpha-4 (Homo sapiens, UniProt P13612); test: allosteric modulators of alpha4 integrin VLA-4 – cell-based, LIBS antibody binding, flow cytometry, SAR follow-up (AID 488791); assay type: functional
[23] = Luminescence Cell-Based Dose Retest to Confirm Inhibitors of Cancer Stem Cells. [Related pubchem assays (depositor defined):AID2717, AID2721]; assay type: functional; details: Homo sapiens
INS1 = test: INS-1E survival protection against cytokine death – cell-based, luminescence, retest, dose response (AID 449756); assay type: functional; details: Rattus norvegicus;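 note: cell death triggered by IL-1 beta plus TNF-alpha plus IFN-gamma mixture; protective hits raise ATP signal compared with cytokine alone wells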
Melanocortin receptor 4 = Melanocortin receptor 4 (Homo sapiens, UniProt P32245); assay type: functional, cell-based;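 note: Cell-based assay with luminescence read-out, confirmatory dose-response testing for agonist activity of biased ligands at MC4R; human U2OS cells with tagged receptor and beta-arrestin; potency of agonists that increase receptor coupling to beta-arrestin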
[24] = molecular target: T9, Ubiquitin-conjugating enzyme E2 N (Homo sapiens, UniProt P61088); assay type: functional;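 note: Dose-response confirmation in a TR-FRET assay detecting UBC13-driven polyubiquitin chain formation, inhibition measured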
T9 sequence (P61088 whole entry): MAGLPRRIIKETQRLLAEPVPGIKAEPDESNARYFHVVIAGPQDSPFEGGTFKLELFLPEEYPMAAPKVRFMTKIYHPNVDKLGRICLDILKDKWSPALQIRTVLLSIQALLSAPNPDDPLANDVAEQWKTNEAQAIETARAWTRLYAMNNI

Hexokinase = Hexokinase (Trypanosoma brucei, UniProt Q38C41); test: Confirmation assay for inhibitors of Trypanosoma brucei hexokinase 1-Analogue-first series. [Related pubchem assays (depositor defined):AID1430, AID1632, AID2516, AID2560, AID2579, AID2600, AID449725, AID492951]; assay type: functional
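Throughout, for CC50: cells exposed to compound for 72 hours before luminescence readout.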

T3 sequence (P11940 whole entry): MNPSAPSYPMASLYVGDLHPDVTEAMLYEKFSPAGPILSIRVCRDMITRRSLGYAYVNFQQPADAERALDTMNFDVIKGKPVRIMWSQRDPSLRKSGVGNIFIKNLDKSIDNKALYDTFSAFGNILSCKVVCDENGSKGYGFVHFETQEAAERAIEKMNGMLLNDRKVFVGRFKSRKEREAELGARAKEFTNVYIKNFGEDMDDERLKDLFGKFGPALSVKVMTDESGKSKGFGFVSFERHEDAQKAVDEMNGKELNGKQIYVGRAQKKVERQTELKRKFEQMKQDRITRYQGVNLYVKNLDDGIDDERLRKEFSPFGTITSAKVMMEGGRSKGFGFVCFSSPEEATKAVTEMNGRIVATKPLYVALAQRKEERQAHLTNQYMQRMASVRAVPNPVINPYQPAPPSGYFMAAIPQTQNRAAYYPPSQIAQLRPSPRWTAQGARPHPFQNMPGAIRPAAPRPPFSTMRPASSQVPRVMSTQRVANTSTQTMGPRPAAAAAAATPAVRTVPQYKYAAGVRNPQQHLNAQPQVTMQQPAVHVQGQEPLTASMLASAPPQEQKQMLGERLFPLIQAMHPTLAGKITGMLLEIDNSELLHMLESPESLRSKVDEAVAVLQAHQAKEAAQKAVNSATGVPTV
T6 sequence (Q01196 whole entry, the tested form may be a part): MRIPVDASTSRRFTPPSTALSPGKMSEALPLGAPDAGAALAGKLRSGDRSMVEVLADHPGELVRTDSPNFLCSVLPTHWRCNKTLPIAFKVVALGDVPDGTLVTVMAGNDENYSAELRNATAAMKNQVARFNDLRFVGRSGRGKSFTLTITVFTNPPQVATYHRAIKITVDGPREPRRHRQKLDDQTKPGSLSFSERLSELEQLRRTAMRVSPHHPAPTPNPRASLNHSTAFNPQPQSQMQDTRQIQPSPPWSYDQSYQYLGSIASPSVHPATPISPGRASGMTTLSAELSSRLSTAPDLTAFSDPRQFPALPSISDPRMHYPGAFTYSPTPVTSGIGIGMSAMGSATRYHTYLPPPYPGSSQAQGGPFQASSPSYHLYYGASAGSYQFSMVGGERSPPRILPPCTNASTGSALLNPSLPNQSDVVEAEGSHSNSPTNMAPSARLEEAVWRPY
T6 sequence (Q13951 whole entry, the tested form may be a part): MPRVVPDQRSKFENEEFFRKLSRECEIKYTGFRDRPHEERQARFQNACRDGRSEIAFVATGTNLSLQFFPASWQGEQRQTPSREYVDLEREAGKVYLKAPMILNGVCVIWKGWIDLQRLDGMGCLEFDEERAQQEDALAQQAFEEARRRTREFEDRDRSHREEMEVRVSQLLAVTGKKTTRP
T7 sequence (Q00975 whole entry): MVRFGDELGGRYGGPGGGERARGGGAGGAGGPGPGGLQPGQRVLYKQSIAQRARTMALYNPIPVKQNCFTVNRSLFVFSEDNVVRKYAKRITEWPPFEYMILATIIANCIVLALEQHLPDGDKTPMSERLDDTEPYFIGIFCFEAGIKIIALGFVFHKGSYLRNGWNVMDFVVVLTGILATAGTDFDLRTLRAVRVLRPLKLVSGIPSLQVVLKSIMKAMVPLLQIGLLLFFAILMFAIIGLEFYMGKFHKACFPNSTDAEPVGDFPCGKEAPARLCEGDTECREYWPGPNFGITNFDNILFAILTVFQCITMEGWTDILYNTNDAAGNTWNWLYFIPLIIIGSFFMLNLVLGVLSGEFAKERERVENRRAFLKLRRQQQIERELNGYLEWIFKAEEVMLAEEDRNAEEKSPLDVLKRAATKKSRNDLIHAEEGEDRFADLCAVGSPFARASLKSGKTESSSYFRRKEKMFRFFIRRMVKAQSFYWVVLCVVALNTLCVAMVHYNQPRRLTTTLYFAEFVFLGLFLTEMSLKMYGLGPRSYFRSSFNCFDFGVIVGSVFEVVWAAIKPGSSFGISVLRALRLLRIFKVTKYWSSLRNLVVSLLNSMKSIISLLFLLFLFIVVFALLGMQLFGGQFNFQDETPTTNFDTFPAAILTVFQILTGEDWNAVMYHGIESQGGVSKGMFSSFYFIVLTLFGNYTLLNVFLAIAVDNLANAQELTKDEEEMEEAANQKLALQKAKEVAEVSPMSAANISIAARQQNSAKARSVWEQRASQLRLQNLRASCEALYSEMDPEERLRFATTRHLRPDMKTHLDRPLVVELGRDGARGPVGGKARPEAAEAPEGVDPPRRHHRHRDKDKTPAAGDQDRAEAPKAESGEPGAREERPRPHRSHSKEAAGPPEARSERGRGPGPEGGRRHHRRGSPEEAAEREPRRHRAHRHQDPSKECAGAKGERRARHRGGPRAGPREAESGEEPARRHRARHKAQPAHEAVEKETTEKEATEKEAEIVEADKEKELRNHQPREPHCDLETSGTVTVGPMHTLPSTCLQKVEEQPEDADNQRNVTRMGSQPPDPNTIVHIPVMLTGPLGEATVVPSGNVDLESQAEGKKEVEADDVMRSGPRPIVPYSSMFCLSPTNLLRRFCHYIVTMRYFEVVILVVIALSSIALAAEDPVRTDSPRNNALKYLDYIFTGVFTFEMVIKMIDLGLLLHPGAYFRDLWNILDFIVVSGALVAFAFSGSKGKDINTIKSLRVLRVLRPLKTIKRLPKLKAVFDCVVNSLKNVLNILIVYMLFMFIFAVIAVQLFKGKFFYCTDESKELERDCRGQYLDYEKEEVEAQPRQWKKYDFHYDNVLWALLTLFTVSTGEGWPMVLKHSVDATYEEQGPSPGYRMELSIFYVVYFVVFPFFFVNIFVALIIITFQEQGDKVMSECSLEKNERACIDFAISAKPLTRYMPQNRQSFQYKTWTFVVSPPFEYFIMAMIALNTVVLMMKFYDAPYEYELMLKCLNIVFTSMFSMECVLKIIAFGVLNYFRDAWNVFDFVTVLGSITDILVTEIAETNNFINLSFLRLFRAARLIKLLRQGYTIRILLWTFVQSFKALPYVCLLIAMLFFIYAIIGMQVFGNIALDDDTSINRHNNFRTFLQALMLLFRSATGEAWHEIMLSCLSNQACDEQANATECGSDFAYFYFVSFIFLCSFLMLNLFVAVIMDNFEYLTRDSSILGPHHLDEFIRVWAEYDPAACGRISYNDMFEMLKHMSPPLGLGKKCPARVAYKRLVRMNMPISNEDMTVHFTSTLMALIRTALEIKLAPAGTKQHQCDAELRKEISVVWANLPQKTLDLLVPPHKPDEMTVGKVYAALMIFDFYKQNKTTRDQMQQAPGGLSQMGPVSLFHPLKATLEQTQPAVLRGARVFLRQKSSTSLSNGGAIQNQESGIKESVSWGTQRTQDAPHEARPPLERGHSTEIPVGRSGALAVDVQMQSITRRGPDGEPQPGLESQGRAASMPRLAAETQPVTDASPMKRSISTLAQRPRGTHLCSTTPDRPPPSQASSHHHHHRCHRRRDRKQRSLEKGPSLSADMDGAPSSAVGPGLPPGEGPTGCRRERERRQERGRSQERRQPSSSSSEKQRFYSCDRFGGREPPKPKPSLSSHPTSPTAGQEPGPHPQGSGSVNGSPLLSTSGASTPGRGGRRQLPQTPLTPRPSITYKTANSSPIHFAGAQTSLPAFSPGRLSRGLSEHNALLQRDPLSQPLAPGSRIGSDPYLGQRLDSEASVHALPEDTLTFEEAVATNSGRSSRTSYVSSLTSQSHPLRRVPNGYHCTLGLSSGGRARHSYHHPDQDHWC
T7 sequence (Q02410 whole entry): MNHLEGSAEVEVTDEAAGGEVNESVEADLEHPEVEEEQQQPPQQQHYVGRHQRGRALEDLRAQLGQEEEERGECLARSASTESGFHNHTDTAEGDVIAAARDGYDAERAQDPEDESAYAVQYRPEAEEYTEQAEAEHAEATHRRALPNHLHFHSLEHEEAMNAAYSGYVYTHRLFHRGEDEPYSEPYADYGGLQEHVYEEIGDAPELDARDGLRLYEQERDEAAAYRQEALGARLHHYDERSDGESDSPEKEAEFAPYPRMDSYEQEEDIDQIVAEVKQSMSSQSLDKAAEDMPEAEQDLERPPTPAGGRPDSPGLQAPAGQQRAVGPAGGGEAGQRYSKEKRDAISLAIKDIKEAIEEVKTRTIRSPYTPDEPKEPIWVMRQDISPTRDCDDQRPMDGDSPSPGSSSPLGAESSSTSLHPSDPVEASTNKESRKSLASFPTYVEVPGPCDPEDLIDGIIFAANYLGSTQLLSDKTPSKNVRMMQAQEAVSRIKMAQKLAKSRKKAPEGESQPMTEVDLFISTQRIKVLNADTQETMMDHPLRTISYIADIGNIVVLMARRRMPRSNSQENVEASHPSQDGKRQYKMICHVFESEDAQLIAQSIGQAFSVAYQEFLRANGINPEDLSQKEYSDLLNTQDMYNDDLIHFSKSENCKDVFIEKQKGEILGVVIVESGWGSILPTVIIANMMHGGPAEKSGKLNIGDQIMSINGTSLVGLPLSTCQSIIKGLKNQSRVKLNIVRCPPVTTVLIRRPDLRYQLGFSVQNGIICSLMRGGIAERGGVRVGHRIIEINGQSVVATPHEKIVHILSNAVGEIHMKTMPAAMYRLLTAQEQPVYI
Sequence of Glyceraldehyde-3-phosphate dehydrogenase (P04406 whole entry): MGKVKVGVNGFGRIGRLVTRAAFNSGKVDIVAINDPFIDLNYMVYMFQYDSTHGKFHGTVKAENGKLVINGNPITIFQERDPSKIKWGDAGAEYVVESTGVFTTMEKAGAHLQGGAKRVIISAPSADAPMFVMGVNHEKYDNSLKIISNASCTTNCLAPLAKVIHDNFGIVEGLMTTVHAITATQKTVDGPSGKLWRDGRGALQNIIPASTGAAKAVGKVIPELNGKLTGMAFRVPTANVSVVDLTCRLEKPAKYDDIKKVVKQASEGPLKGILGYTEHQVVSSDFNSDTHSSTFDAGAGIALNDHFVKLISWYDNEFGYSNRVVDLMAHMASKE

In the case of `Cc1cc(Br)c2c(c1)/C(=C/C(=O)c1cccs1)C(=O)N2`, the EC50 [1] is reported as 1.95 µM (active), the AC50 [2] is reported as 48.5 µM (active) and the AC50 [3] is reported as 19.9 µM (active). The “Absolute IC50 (CHOP)” value [4] was 10 µM, the EC50 [5] was 17.4 µM (active) and the EC50 [6] was > 60 µM (not active). For the same compound, the EC50 (Protein RecA) was 3.27 µM (active), the CC50 [7] was 18.4 µM (active) and the AC50 [8] was 2.46 µM (active). For the same compound, the AC50 [9] was 20.7 µM (active).

With `COC(=O)c1c(Sc2ccccc2)c2ccccc2n1C` the IC50 [10] was 2.76 µM (active), the IC50 [11] was > 100 µM (inactive) and the IC50 [12] was 4.23 µM (active). For the same compound, the IC50 [13] was 13.8 µM (active).

With `N#Cc1c(NCCN)nc(NCc2ccccc2)c2c1CCN(Cc1ccccc1)C2` the IC50 (Estrogen receptor) was 11.8 µM (active), the IC50 [14] was 47.8 µM (active) and the IC50 [15] was 4.57 µM (active). The EC50 [16] was > 20 µM (not active) and the EC50 [17] was > 20 µM (not active).

In the case of `COc1cc(/C=C2\SC(=S)N(c3cccnc3)C2=O)ccc1O`, the IC50 [18] is reported as 4.4 µM (active), the EC50 (Ion channel NompC) is reported as > 29.9 µM (inactive) and the EC50 (Mucolipin-3) is reported as > 29.9 µM (not active). The IC50 [19] was > 50 µM (inactive).

With `O=C(CSc1n[nH]c(-c2ccccc2Cl)n1)Nc1ccccc1F` the IC50 [20] was 4.7 µM (active), the IC50 [21] was > 100 µM (inactive) and the IC50 [22] was > 100 µM (not active).

With `CN(C)CCOc1ccc(-c2c(-c3ccccc3)sc3ccccc23)cc1` the EC50 (Integrin alpha-4) was > 30 µM (inactive), the AC50 [23] was 2.93 µM (active) and the AC50 (INS1) was 6.82 µM (active). The EC50 (Melanocortin receptor 4) was > 89.2 µM (inactive) and the IC50 [24] was > 20 µM (inactive).

With `Cn1c2ccccc2c(=O)n1-c1ccccc1` the IC50 (Hexokinase) was > 25 µM (inactive).
